Measurements as given in patent publication US20250092039A1, “GLUTARIMIDE-CONTAINING PAN-KRAS-MUTANT DEGRADER COMPOUNDS AND USES THEREOF” (Tiger Biotherapeutics Inc., priority 2022, published 2025).
Read-outs that look alike come from different tables or passages of the source.

Legend:
KRAS-G12V/RAF1 = KRAS-G12V/RAF1 (Homo sapiens (Human), UniProt P01116, G12V); assay: KRAS/RAF1 binding inhibition assay (AlphaScreen)
Outline: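 Binding of GppNHp-loaded KRAS G12V to the RAF1 RBD was measured by AlphaScreen with test compound present in 2% DMSO (final), 60 min incubation at 4° C. Signals were converted to % inhibition versus DMSO, and IC50 was obtained by variable-slope nonlinear regression.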

SW620 cells = assay: 3D cell growth inhibition of SW620 cells carrying endogenous KRAS G12V mutation (CellTiter-Glo 3D, GI50); assay type: cell-based; settings: Homo sapiens, SW-620, 144 h, read-out: SW620 3D cell growth GI50
Outline: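 SW620 cells (endogenous KRAS G12V) grown in 3D were dosed next day with compound from DMSO stocks at various concentrations, then incubated 6 days at 37° C.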

[1] = Pharmacokinetics following single intravenous and oral gavage dosing (AUC0-24h); assay type: in vivo; settings: mouse, plasma, male CD-1 mice
Method: Compounds disclosed herein were studied for animal tolerability and pharmacokinetics following single intravenous (iv) and oral gavage (po) dosing to male CD-1 mice. For each compound in each dosing route, 3 mice were used with iv dosing volume of 5 mL/kg and po dosing volume of 10 mL/kg. The compounds were formulated in 10% DMSO, 30% PEG400, 60% aqueous solution containing 20% 2-hydroxypropyl-β-cyclodextrin. Blood sampling time points for iv dosing were 0.083, 0.25, 0.5, 1, 2, 4, 8 and 24 h. The sampling time points for po dosing were 0.25, 0.5, 1, 2, 4, 6, 8 and 24 h. Mice activities were monitored and recorded immediately following the dosing. The prepared plasma samples were analyzed using LC/MS/MS on AB Sciex Triple Quad 5500+ system. The PK parameters were determined by non-compartmental analysis using WinNonlin (Version 8.0).

KRAS G12V = KRAS G12V (Homo sapiens (Human), UniProt P01116, G12V); assay: KRAS G12V degradation in SW620 cells (Western blot, DC50); assay type: cell-based; settings: 24 hours
Outline: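 SW620 cells (homozygous KRAS G12V) were treated with compound for 24 hours at 37° C. KRAS in lysates was measured by Western blot with fluorescent secondary antibodies and expressed relative to DMSO vehicle (100%). DC50 came from a four-parameter variable-slope dose-response fit.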

Chain of KRAS G12V (P01116-2 other isoform, or with tags, fused parts or gaps G12V): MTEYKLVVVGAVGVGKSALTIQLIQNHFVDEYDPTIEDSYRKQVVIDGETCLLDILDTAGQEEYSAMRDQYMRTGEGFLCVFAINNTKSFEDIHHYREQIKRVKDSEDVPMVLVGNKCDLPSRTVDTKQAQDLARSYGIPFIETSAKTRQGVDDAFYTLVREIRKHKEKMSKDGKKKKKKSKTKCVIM
Chain of KRAS-G12V/RAF1 (P01116-2 other isoform, or with tags, fused parts or gaps G12V): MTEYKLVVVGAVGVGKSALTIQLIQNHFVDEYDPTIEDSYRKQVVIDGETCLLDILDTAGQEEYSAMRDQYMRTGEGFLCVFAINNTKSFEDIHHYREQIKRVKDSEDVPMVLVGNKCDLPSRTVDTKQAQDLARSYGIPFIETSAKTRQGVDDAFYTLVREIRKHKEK

Row | Structure (SMILES) | GI50 (SW620 cells; SW620 cells, 6 days) | AUC(0-t) ([1]; single oral dose 25 mg/Kg) | IC50 (KRAS-G12V/RAF1) | AUC(0-t) ([1]; single oral dose 30 mg/Kg) | DC50 (KRAS G12V) | GI50 (SW620 cells)
1 | CCc1c(F)ccc2cc(O)cc(-c3ncc4c(N5CCC[C@@](C)(O)C5)nc(OCC5(CN6CCC(C)(CN7CCN(c8ccc9c(c8)CN([C@H]8CCC(=O)NC8=O)C9=O)CC7)CC6)CC5)nc4c3F)c12 [Compound 12, (S)-3-(5-(4-((1-((1-(((7-(8-ethyl-7-fluoro-3-hydroxynaphthalen-1-yl)-8-fluoro-4-((R)-3-hydroxy-3-methylpiperidin-1-yl)pyrido[4,3-d]pyrimidin-2-yl)oxy)methyl)cyclopropyl)methyl)-4-methylpiperidin-4-yl)methyl)piperazin-1-yl)-1-oxoisoindolin-2-yl)piperidine-2,6-dione] | < 10 nM | – | 20 to 200 nM | 3250 ng·h/mL | < 1 nM | –
2 | CCc1c(F)ccc2cc(O)cc(-c3ncc4c(N5CCCC6(CCO6)C5)nc(OCC5(CN6CCC(F)(CN7CCN(c8ccc9c(c8)CN([C@H]8CCC(=O)NC8=O)C9=O)CC7)CC6)CC5)nc4c3F)c12 (stereo partly drawn) [Compound 41, (3S)-3-(5-(4-((1-((1-(((7-(8-ethyl-7-fluoro-3-hydroxynaphthalen-1-yl)-8-fluoro-4-(1-oxa-6-azaspiro[3.5]nonan-6-yl)pyrido[4,3-d]pyrimidin-2-yl)oxy)methyl)cyclopropyl)methyl)-4-fluoropiperidin-4-yl)methyl)piperazin-1-yl)-1-oxoisoindolin-2-yl)piperidine-2,6-dione] | < 10 nM | – | 20 to 200 nM | 1850 ng·h/mL | 1 to 10 nM | –
3 | CCc1c(F)ccc2cc(O)cc(-c3ncc4c(N5CCC[C@@](C)(O)C5)nc(OCC5(CN6CCC(C)(CN7CCN(c8cc(F)c(C9CCC(=O)NC9=O)c(F)c8)CC7)CC6)CC5)nc4c3F)c12 (stereo partly drawn) [Compound 48, 3-(4-(4-((1-((1-(((7-(8-ethyl-7-fluoro-3-hydroxynaphthalen-1-yl)-8-fluoro-4-((R)-3-hydroxy-3-methylpiperidin-1-yl)pyrido[4,3-d]pyrimidin-2-yl)oxy)methyl)cyclopropyl)methyl)-4-methylpiperidin-4-yl)methyl)piperazin-1-yl)-2,6-difluorophenyl)piperidine-2,6-dione] | – | – | 20 to 200 nM | 17200 ng·h/mL | 1 to 10 nM | < 10 nM
4 | CCc1c(F)ccc2cc(O)cc(-c3ncc4c(N5CCC[C@@](C)(O)C5)nc(OCC5(CN6CCC7(CC6)CC(CN6CCN(c8cc(F)c(C9CCC(=O)NC9=O)c(F)c8)CC6)C7)CC5)nc4c3F)c12 (stereo partly drawn) [Compound 49, 3-(4-(4-((7-((1-(((7-(8-ethyl-7-fluoro-3-hydroxynaphthalen-1-yl)-8-fluoro-4-((R)-3-hydroxy-3-methylpiperidin-1-yl)pyrido[4,3-d]pyrimidin-2-yl)oxy)methyl)cyclopropyl)methyl)-7-azaspiro[3.5]nonan-2-yl)methyl)piperazin-1-yl)-2,6-difluorophenyl)piperidine-2,6-dione] | < 10 nM | – | 20 to 200 nM | 3170 ng·h/mL | < 1 nM | –
5 | CCc1c(F)ccc2cc(O)cc(-c3ncc4c(N5CCC[C@@](C)(O)C5)nc(OCC5(CN6CCC7(CC6)CC(N6CCN(c8cc(F)c(C9CCC(=O)NC9=O)c(F)c8)CC6)C7)CC5)nc4c3F)c12 (stereo partly drawn) [Compound 50, 3-(4-(4-(7-((1-(((7-(8-ethyl-7-fluoro-3-hydroxynaphthalen-1-yl)-8-fluoro-4-((R)-3-hydroxy-3-methylpiperidin-1-yl)pyrido[4,3-d]pyrimidin-2-yl)oxy)methyl)cyclopropyl)methyl)-7-azaspiro[3.5]nonan-2-yl)piperazin-1-yl)-2,6-difluorophenyl)piperidine-2,6-dione] | < 10 nM | – | 20 to 200 nM | 3900 ng·h/mL | < 1 nM | –
6 | CCc1c(F)ccc2cc(O)cc(-c3ncc4c(N5CCC[C@@](C)(O)C5)nc(OCC5(CN6CCC7(CCC(N8CCN(c9cc(F)c(C%10CCC(=O)NC%10=O)c(F)c9)CC8)CC7)CC6)CC5)nc4c3F)c12 (stereo partly drawn) [Compound 51, 3-{4-[4-(3-{[1-({[7-(8-ethyl-7-fluoro-3-hydroxynaphthalen-1-yl)-8-fluoro-4-[(3R)-3-hydroxy-3-methylpiperidin-1-yl]pyrido[4,3-d]pyrimidin-2-yl]oxy}methyl)cyclopropyl]methyl}-3-azaspiro[5.5]undecan-9-yl)piperazin-1-yl]-2,6-difluorophenyl}piperidine-2,6-dione] | – | – | 20 to 200 nM | 2280 ng·h/mL | 1 to 10 nM | < 10 nM
7 | CCc1c(F)ccc2cc(O)cc(-c3ncc4c(N5CCC[C@@](C)(O)C5)nc(OCC5(CN6CC7(CCC(N8CCN(c9cc(F)c(C%10CCC(=O)NC%10=O)c(F)c9)CC8)CC7)C6)CC5)nc4c3F)c12 (stereo partly drawn) [Compound 60, 3-(4-(4-(2-((1-(((7-(8-ethyl-7-fluoro-3-hydroxynaphthalen-1-yl)-8-fluoro-4-((R)-3-hydroxy-3-methylpiperidin-1-yl)pyrido[4,3-d]pyrimidin-2-yl)oxy)methyl)cyclopropyl)methyl)-2-azaspiro[3.5]nonan-7-yl)piperazin-1-yl)-2,6-difluorophenyl)piperidine-2,6-dione] | < 10 nM | – | 20 to 200 nM | 1780 ng·h/mL | < 1 nM | –

Further lines, with some results ahead:

Row | GI50 (SW620 cells; SW620 cells, 6 days) | AUC(0-t) ([1]; single oral dose 25 mg/Kg) | Structure (SMILES) | IC50 (KRAS-G12V/RAF1) | AUC(0-t) ([1]; single oral dose 30 mg/Kg) | DC50 (KRAS G12V) | GI50 (SW620 cells)
8 | < 10 nM | 525 ng·h/mL | CCc1c(F)ccc2cc(O)cc(-c3ncc4c(N5CCC[C@@](C)(O)C5)nc(OCC5(CN6CCC(CN7CCN(c8ccc9c(c8)CN([C@H]8CCC(=O)NC8=O)C9=O)CC7)(OC)CC6)CC5)nc4c3F)c12 [Compound 25, (S)-3-(5-(4-((1-((1-(((7-(8-ethyl-7-fluoro-3-hydroxynaphthalen-1-yl)-8-fluoro-4-((R)-3-hydroxy-3-methylpiperidin-1-yl)pyrido[4,3-d]pyrimidin-2-yl)oxy)methyl)cyclopropyl)methyl)-4-methoxypiperidin-4-yl)methyl)piperazin-1-yl)-1-oxoisoindolin-2-yl)piperidine-2,6-dione] | < 20 nM | – | < 1 nM | –
9 | < 10 nM | – | CCc1cccc2cc(O)cc(-c3ncc4c(N5CCC[C@@](C)(O)C5)nc(OCC5(CN6CCC(F)(CN7CC8(CCN(c9ccc%10c(c9)CN(C9CCC(=O)NC9=O)C%10=O)CC8)C7)CC6)CC5)nc4c3F)c12 (stereo partly drawn) [Compound 28, 3-(5-(2-((1-((1-(((7-(8-ethyl-3-hydroxynaphthalen-1-yl)-8-fluoro-4-((R)-3-hydroxy-3-methylpiperidin-1-yl)pyrido[4,3-d]pyrimidin-2-yl)oxy)methyl)cyclopropyl)methyl)-4-fluoropiperidin-4-yl)methyl)-2,7-diazaspiro[3.5]nonan-7-yl)-1-oxoisoindolin-2-yl)piperidine-2,6-dione] | 20 to 200 nM | 539 ng·h/mL | < 1 nM | –
10 | < 10 nM | – | CCc1cccc2cc(O)cc(-c3ncc4c(N5CCC[C@@](C)(O)C5)nc(OCC5(CN6CCC(F)(CN7CCN(c8ccc9c(c8)CN([C@H]8CCC(=O)NC8=O)C9=O)CC7)CC6)CC5)nc4c3F)c12 [Compound 33, (S)-3-(5-(4-((1-((1-(((7-(8-ethyl-3-hydroxynaphthalen-1-yl)-8-fluoro-4-((R)-3-hydroxy-3-methylpiperidin-1-yl)pyrido[4,3-d]pyrimidin-2-yl)oxy)methyl)cyclopropyl)methyl)-4-fluoropiperidin-4-yl)methyl)piperazin-1-yl)-1-oxoisoindolin-2-yl)piperidine-2,6-dione] | 20 to 200 nM | 509 ng·h/mL | < 1 nM | –
11 | < 10 nM | – | CCc1c(F)ccc2cc(O)cc(-c3ncc4c(N5CCC[C@@](C)(O)C5)nc(OCC5(CN6CCC(C)(CN7CCN(C8CCN(c9ccc%10c(c9)CN(C9CCC(=O)NC9=O)C%10=O)CC8)CC7)CC6)CC5)nc4c3F)c12 (stereo partly drawn) [Compound 39, 3-(5-(4-(4-((1-((1-(((7-(8-ethyl-7-fluoro-3-hydroxynaphthalen-1-yl)-8-fluoro-4-((R)-3-hydroxy-3-methylpiperidin-1-yl)pyrido[4,3-d]pyrimidin-2-yl)oxy)methyl)cyclopropyl)methyl)-4-methylpiperidin-4-yl)methyl)piperazin-1-yl)piperidin-1-yl)-1-oxoisoindolin-2-yl)piperidine-2.6-dione] | < 20 nM | 399 ng·h/mL | < 1 nM | –
12 | < 10 nM | – | CCc1c(F)ccc2cc(O)cc(-c3ncc4c(N5CCC[C@@](C)(O)C5)nc(OCC5(CN6CCC(C)(CN7CC8(CCN(c9ccc%10c(c9)CN([C@H]9CCC(=O)NC9=O)C%10=O)CC8)C7)CC6)CC5)nc4c3F)c12 [Compound 40, (3S)-3-(5-(2-[(1-{[1-({[7-(8-ethyl-7-fluoro-3-hydroxynaphthalen-1-yl)-8-fluoro-4-[(3R)-3-hydroxy-3-methylpiperidin-1-yl]pyrido[4,3-d]pyrimidin-2-yl]oxy}methyl)cyclopropyl]methyl}-4-methylpiperidin-4-yl)methyl]-2,7-diazaspiro[3.5]nonan-7-yl}-1-oxo-3H-isoindol-2-yl)piperidine-2,6-dione] | < 20 nM | 652 ng·h/mL | < 1 nM | –
